From patent US9718804B2, “GSK-3 inhibitors” (BRISTOL-MYERS SQUIBB COMPANY, priority 2013, dated 2017)

Legend:
GSK3β = GSK3β (Homo sapiens, UniProt P49841); assay: GSK3β kinase assay (Caliper LabChip, fluoresceinated peptide substrate); type: biochemical; conditions: first value of the cell; 250 pM enzyme, 20 uM ATP, 20 hours at room temperature; read-out: GSK3β/α (nM): GSK3β IC50
Method: (§1) The kinase assay was performed in V-bottom 384-well plates. […] The reaction was incubated at room temperature for 20 hours and terminated by adding 45 μl of 35 mM EDTA to each sample. The reaction mixture was analyzed on the Caliper LabChip3000 (Caliper, Hopkinton, Mass.) by electrophoretic separation of the unphosphorylated substrate and phosphorylated product. […] Compounds were dissolved at 10 mM in dimethylsulfoxide (DMSO) and evaluated at eleven concentrations. IC50 values were derived by non-linear regression analysis.

GSK3α = GSK3α (Homo sapiens, UniProt P49840); assay: GSK3α kinase assay (Caliper LabChip, fluoresceinated peptide substrate); type: biochemical
Method: as §1

pTau = pTau assay (no method described); type: cell-based

GSK3β, sequence (P49841 whole entry, species assumed): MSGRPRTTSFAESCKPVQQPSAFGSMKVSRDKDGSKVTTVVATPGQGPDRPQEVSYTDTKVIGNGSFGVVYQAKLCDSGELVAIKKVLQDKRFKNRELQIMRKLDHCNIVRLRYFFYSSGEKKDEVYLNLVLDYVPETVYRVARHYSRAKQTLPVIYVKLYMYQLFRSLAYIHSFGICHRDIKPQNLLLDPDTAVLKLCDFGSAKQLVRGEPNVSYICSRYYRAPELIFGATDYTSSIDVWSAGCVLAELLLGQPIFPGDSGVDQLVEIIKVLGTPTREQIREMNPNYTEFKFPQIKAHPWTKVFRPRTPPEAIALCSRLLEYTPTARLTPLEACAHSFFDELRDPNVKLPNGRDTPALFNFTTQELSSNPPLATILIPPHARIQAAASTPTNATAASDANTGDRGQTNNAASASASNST
GSK3α, sequence (P49840 whole entry, species assumed): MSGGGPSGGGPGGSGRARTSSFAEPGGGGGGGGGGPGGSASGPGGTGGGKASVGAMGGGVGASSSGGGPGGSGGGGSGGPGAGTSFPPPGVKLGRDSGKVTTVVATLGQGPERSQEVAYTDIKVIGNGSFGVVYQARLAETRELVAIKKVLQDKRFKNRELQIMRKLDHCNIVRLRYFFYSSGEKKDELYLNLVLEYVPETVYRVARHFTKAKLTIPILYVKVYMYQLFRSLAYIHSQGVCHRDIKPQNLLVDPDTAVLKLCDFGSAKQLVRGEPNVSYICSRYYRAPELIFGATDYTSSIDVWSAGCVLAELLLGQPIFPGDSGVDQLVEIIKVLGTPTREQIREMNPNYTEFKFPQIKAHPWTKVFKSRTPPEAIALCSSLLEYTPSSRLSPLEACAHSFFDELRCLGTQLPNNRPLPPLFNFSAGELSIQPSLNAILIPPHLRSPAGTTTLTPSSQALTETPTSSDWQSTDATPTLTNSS

Structure (SMILES) | IC50 (GSK3β) | IC50 (GSK3α) | IC50 (pTau)
N#Cc1ccc(-c2ccncc2NC(=O)c2ccnc(Nc3ccc(C(F)(F)F)cn3)c2)c(F)c1 [Example 52, N-(4-(2-Fluoro-4-cyano-phenyl)pyridin-3-yl)-2-((5-(trifluoromethyl)pyridin-2-yl)amino)isonicotinamide] | 3.6 nM | 1.5 nM | 35 nM
O=C(Nc1cnccc1-c1ccc(F)cc1C(F)(F)F)c1ccnc(Nc2ccc(C(F)(F)F)cn2)c1 [Example 53, N-(4-(2-Trifluoromethyl-4-fluoro-phenyl)pyridin-3-yl)-2-((5-(trifluoromethyl)pyridin-2-yl)amino)isonicotinamide] | 0.51 nM | 0.57 nM | 8.3 nM
O=C(Nc1cnccc1-c1ccc(F)cc1F)c1ccnc(Nc2ccc(C(F)(F)F)cn2)c1 [Example 54, N-(4-(2,4-Difluoro-phenyl)pyridin-3-yl)-2-((5-(trifluoromethyl)pyridin-2-yl)amino)isonicotinamide] | 2.8 nM | 0.96 nM | 57 nM
COc1ccc(-c2ccncc2NC(=O)c2ccnc(Nc3ccc(C(F)(F)F)cn3)c2)c(F)c1 [Example 55, N-(4-(2-Fluoro-4-methoxy-phenyl)pyridin-3-yl)-2-((5-(trifluoromethyl)pyridin-2-yl)amino)isonicotinamide] | 3.2 nM | 0.89 nM | 86 nM
N#Cc1ccc(Nc2cc(C(=O)Nc3cnccc3-c3ccc(F)cc3)ccn2)nc1 [Example 56, 2-((5-Cyanopyridin-2-yl)amino)-N-(4-(4-fluorophenyl)pyridin-3-yl)isonicotinamide] | 2.4 nM | 0.98 nM | 36 nM
N#Cc1ccc(Nc2cc(C(=O)Nc3cnccc3-c3ccc(F)cc3F)ccn2)nc1 [Example 57, 2-((5-Cyanopyridin-2-yl)amino)-N-(4-(2,4-difluorophenyl)pyridin-3-yl)isonicotinamide] | 1.3 nM | 0.59 nM | 19 nM
O=C(Nc1cnccc1-c1ccc(F)cc1)c1ccnc(Nc2ccc(Cl)cn2)c1 [Example 58, 2-((5-Chloropyridin-2-yl)amino)-N-(4-(4-fluorophenyl)pyridin-3-yl)isonicotinamide] | 0.86 nM | 0.36 nM | 57 nM
O=C(Nc1cnccc1-c1ccccc1)c1ccnc(Nc2ccc(Cl)cn2)c1 [Example 59, 2-((5-Chloropyridin-2-yl)amino)-N-(4-phenylpyridin-3-yl)isonicotinamide] | 0.9 nM | 0.39 nM | 45 nM
O=C(Nc1cnccc1-c1ccc(Cl)cc1)c1ccnc(Nc2ccc(Cl)cn2)c1 [Example 60, N-(4-(4-Chlorophenyl)pyridin-3-yl)-2-((5-chloropyridin-2-yl)amino)isonicotinamide] | 2.7 nM | 1.2 nM | 270 nM
CC(C)(C#N)c1ccc(Nc2cc(C(=O)Nc3cnccc3-c3ccccc3)ccn2)nc1 [Example 61, 2-((5-(2-Cyanopropan-2-yl)pyridin-2-yl)amino)-N-(4-phenylpyridin-3-yl)isonicotinamide] | 1.5 nM | 0.54 nM | 150 nM
N#CC1(c2ccc(Nc3cc(C(=O)Nc4cnccc4-c4ccccc4)ccn3)nc2)CC1 [Example 62, 2-((5-(1-Cyanocyclopropyl)pyridin-2-yl)amino)-N-(4-phenylpyridin-3-yl)isonicotinamide] | 0.62 nM | 0.29 nM | 37 nM
O=C(Nc1cnccc1-c1ccccc1)c1ccnc(Nc2ccc(Br)cn2)c1 [Example 63, 2-((5-Bromopyridin-2-yl)amino)-N-(4-phenylpyridin-3-yl)isonicotinamide] | 9.3 nM | 3.4 nM | 150 nM
O=C(Nc1cncc2ccccc12)c1ccnc(Nc2ccc(C(F)(F)F)cn2)c1 [Example 64, N-(Isoquinolin-4-yl)-2-((5-(trifluoromethyl)pyridin-2-yl)amino)isonicotinamide] | 10 nM | 3.1 nM | 610 nM
N#Cc1ccc(Nc2cc(C(=O)Nc3cncc4ccccc34)ccn2)nc1 [Example 65, 2-((5-Cyanopyridin-2-yl)amino)-N-(isoquinolin-4-yl)isonicotinamide] | 8.5 nM | 3.2 nM | 420 nM
O=C(Nc1cnc(Cl)cc1-c1ccccc1)c1ccnc(Nc2ccc(C(F)(F)F)cn2)c1 [Example 66, N-(6-Chloro-4-phenylpyridin-3-yl)-2-((5-(trifluoromethyl)pyridin-2-yl)amino)isonicotinamide] | 61 nM | 29 nM | 5850 nM
O=C(Nc1cnc(F)cc1-c1ccccc1)c1ccnc(Nc2ccc(C(F)(F)F)cn2)c1 [Example 67, N-(6-Fluoro-4-phenylpyridin-3-yl)-2-((5-(trifluoromethyl)pyridin-2-yl)amino)isonicotinamide] | 7 nM | 4 nM | 524 nM
Cc1cc(-c2ccccc2)c(NC(=O)c2ccnc(Nc3ccc(C(F)(F)F)cn3)c2)cn1 [Example 68, N-(6-Methyl-4-phenylpyridin-3-yl)-2-((5-(trifluoromethyl)pyridin-2-yl)amino)isonicotinamide] | 12 nM | 5.7 nM | 1010 nM
O=C(Nc1cnc(Cl)cc1N1CCC(F)(F)CC1)c1ccnc(Nc2ccc(C(F)(F)F)cn2)c1 [Example 70, N-(6-Chloro-4-(4,4-difluoropiperidin-1-yl)pyridin-3-yl)-2-((5-(trifluoromethyl)pyridin-2-yl)amino)isonicotinamide] | 7.6 nM | 2.6 nM | 564 nM
O=C(Nc1cnc(F)cc1N1CCC(F)(F)CC1)c1ccnc(Nc2ccc(C(F)(F)F)cn2)c1 [Example 71, N-(6-Fluoro-4-(4,4-difluoropiperidin-1-yl)pyridin-3-yl)-2-((5-(trifluoromethyl)pyridin-2-yl)amino)isonicotinamide] | 1.3 nM | 0.36 nM | 60 nM
Cc1cc(N2CCC(F)(F)CC2)c(NC(=O)c2ccnc(Nc3ccc(C(F)(F)F)cn3)c2)cn1 [Example 72, N-(6-Methyl-4-(4,4-difluoropiperidin-1-yl)pyridin-3-yl)-2-((5-(trifluoromethyl)pyridin-2-yl)amino)isonicotinamide] | 3.5 nM | 0.76 nM | 120 nM
O=C(Nc1cnc(F)cc1N1CCOCC1)c1ccnc(Nc2ccc(C(F)(F)F)cn2)c1 [Example 73, N-(6-Fluoro-4-morpholinopyridin-3-yl)-2-((5-(trifluoromethyl)pyridin-2-yl)amino)isonicotinamide] | 1 nM | 0.6 nM | 43 nM
O=C(Nc1cnc(Cl)cc1C1(O)CCOCC1)c1ccnc(Nc2ccc(C(F)(F)F)cn2)c1 [Example 74, N-(6-Chloro-4-(4-hydroxytetrahydro-2H-pyran-4-yl)pyridin-3-yl)-2-((5-(trifluoromethyl)pyridin-2-yl)amino)isonicotinamide] | 3.4 nM | 2.5 nM | 180 nM
CC(C)(C)COc1cc(F)ncc1NC(=O)c1ccnc(Nc2ccc(C(F)(F)F)cn2)c1 [Example 75, N-(6-Fluoro-4-(neopentyloxy)pyridin-3-yl)-2-((5-(trifluoromethyl)pyridin-2-yl)amino)isonicotinamide] | 5.1 nM | 2.4 nM | 830 nM
CC1(c2cc(Cl)ncc2NC(=O)c2ccnc(Nc3ccc(C(F)(F)F)cn3)c2)OCCO1 [Example 76, N-(6-Chloro-4-(2-methyl-1,3-dioxolan-2-yl)pyridin-3-yl)-2-((5-(trifluoromethyl)pyridin-2-yl)amino)isonicotinamide] | 0.32 nM | 0.2 nM | 13 nM
CC1(c2cc(Cl)ncc2NC(=O)c2ccnc(Nc3ccc(C(F)(F)F)cn3)c2)CCCO1 (stereo not drawn) [Example 77, N-(6-Chloro-4-(2-methyltetrahydrofuran-2-yl)pyridin-3-yl)-2-((5-(trifluoromethyl)pyridin-2-yl)amino)isonicotinamide] | 0.63 nM | 0.35 nM | 31 nM
CC1OC(C)(c2cc(Cl)ncc2NC(=O)c2ccnc(Nc3ccc(C(F)(F)F)cn3)c2)OC1C (stereo not drawn) [Example 78, N-(6-Chloro-4-(2,4,5-trimethyl-1,3-dioxolan-2-yl)pyridin-3-yl)-2-((5-(trifluoromethyl)pyridin-2-yl)amino)isonicotinamide] | 4.5 nM | 3.2 nM | 170 nM
CCC1(c2cc(Cl)ncc2NC(=O)c2ccnc(Nc3ccc(C(F)(F)F)cn3)c2)OCCO1 [Example 79, N-(6-Chloro-4-(2-ethyl-1,3-dioxolan-2-yl)pyridin-3-yl)-2-((5-(trifluoromethyl)pyridin-2-yl)amino)isonicotinamide] | 0.31 nM | 0.17 nM | 33 nM
O=C(Nc1cnc(F)cc1OCC(F)F)c1ccnc(Nc2ccc(C(F)(F)F)cn2)c1 [Example 80, N-(4-(2,2-Difluoroethoxy)-6-fluoropyridin-3-yl)-2-((5-(trifluoromethyl)pyridin-2-yl)amino)isonicotinamide] | 6.2 nM | 3.3 nM | 86 nM
CCC1(c2cc(Cl)ncc2NC(=O)c2ccnc(Nc3ccc(C(F)(F)F)cn3)c2)OC(C)C(C)O1 (stereo not drawn) [Example 81, N-(6-Chloro-4-(2-ethyl-4,5-dimethyl-1,3-dioxolan-2-yl)pyridin-3-yl)-2-((5-(trifluoromethyl)pyridin-2-yl)amino)isonicotinamide] | 6.7 nM | 4 nM | 1900 nM
